Results: US20200113852A1, “METHODS OF PATIENT SELECTION AND TREATING TRXR- OR PRDX-OVEREXPRESSED CANCERS” (TRIACT THERAPEUTICS, INC., priority 2017, published 2020)
Where two headings read alike, the source gives them in different places.

What was measured:
[1] = tested on: TrxR1 and other protein targets in HCT116 cells; settings: GSH-depleted HCT116
Description: (§3) TrxR1 immunoprecipitates (FIG. 17A) and cells extracts (FIG. 17B) were analysed by SDS-PAGE under reducing conditions followed by streptavidin-HRP blot and TrxR1 blot.
(§4) Clarified octyl-glucoside lysates (12 mg proteins) were combined with anti-TrxR1 or anti-TrxR2 monoclonal antibody coupled to protein G plus agarose (Santa Cruz Biotechnology) and mixed overnight at 4° C. Beads were recovered by centrifugation for 2 min at 1,000×g and extensively washed in octyl-glucoside lysis buffer. Precipitated complexes were eluted by incubating the beads for 20 min at 60° C. in SDS sample buffer. The amount of immunoprecipitated TrxR1 and TrxR2 was systematically checked by blots anti-TrxR1 and anti-TrxR2, respectively.

[2] = target: T1, TrxR1 and other protein targets in HCT116 cells (Homo sapiens, UniProt Q16881)
T1 sequence (Q16881 1-499 isoform Q16881-5): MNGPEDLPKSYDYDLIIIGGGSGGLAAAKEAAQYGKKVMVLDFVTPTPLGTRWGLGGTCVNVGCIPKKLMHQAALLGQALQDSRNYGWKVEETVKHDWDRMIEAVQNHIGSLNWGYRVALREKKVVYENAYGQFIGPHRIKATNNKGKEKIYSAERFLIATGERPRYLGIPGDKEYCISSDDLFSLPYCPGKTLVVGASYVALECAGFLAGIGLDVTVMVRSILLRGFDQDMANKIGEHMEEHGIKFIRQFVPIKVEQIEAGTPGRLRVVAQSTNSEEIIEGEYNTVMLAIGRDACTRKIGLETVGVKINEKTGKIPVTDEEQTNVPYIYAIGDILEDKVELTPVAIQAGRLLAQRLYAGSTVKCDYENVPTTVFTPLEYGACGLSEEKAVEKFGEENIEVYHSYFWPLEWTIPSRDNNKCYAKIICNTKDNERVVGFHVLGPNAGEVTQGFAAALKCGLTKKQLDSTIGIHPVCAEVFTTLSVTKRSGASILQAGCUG
Description: as §3, §4

TrxR in MDA-MB-231 cells = experiment: Endogenous TrxR activity (DTNB reduction assay); type: cell-based, human; settings: GSH-depleted MDA-MB-231; iniparib 100 μM, Auranofin 1 μM, up to 4 h
Source text: Initial velocities were derived from linear regression analyses and then plotted in double reciprocal plots to obtain the half time of TrxR inhibition using an one phase exponential decay analysis (Prism, GraphPad software).

[3] = tested on: Trx, JNK, p38MAPK, PARP in HCT116 cells; experiment: Cell death signaling western blots (Trx oxidation, phospho-JNK, phospho-p38MAPK, cleaved-PARP)
Description: Cells extracts were analyzed by SDS-PAGE either under reducing conditions or under non-reducing conditions in the case of Trx blot followed by blots anti-phospho-JNK, anti-phospho-p38MAPK, anti-cleaved-PARP and anti-Trx. Results are representative of three independent experiments.
After 2 h at 4° C., lysates were clarified by centrifugation and protein amounts were measured using the BCA assay (Pierce, Thermo scientific).
Equal amounts of proteins were resolved by SDS-PAGE under either non-reducing or reducing (5% 2-mercaptoethanol, 20 min at 60° C.) conditions, using 4-20% gels (Novex, Invitrogen), then subjected to semi-dry electrophoretic transfer onto nitrocellulose membranes.

TrxR in HCT116 cells = target: T2, TrxR in HCT116 cells (Homo sapiens, UniProt Q16881); experiment: Endogenous TrxR activity in cell lysates (DTNB reduction assay); type: cell-based
T2 sequence (Q16881 1-649): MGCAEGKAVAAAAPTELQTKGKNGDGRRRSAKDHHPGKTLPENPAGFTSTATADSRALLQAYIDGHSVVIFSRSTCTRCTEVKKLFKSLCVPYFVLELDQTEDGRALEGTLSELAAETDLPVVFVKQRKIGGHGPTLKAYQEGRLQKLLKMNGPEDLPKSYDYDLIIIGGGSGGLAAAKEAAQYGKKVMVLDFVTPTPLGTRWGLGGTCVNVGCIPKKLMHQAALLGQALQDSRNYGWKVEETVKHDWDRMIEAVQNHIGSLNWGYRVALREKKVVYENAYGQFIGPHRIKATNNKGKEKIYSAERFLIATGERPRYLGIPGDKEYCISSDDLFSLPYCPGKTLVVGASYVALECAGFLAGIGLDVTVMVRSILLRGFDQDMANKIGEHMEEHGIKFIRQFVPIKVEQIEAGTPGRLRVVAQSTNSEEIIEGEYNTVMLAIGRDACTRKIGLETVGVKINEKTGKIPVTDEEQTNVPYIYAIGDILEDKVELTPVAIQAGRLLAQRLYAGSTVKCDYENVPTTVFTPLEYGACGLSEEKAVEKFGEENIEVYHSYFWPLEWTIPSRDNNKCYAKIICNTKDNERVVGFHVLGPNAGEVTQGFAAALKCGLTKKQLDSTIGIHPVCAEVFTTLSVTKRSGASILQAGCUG

[4] = tested on: GSH in HCT116 and MDA-MB-453 cell lines; experiment: GSH depletion with BSO (GSH-Glo glutathione assay); type: cell-based, human; settings: 1 mM BSO for 18 h, both cell lines
Description: Cells were seeded (96 well plates) at increasing densities, the highest density corresponding to that used for viability studies. […] GSH amount was measured thereafter using GSH-Glo™ glutathione assay.

HCT116 cells = experiment: Iniparib metabolites release, XLC-MS/MS of incubation media; type: in vitro ADME, human; parameters: unit not given beside the values
Description: (§1) Online solid phase extraction (SPE) was performed using the fully automated Spark Holland Symbiosis™ (Emmen, The Netherlands) in eXtraction Liquid Chromatography (XLC) mode. The Symbiosis™ has previously been described in detail (18). HySphere™ C18 HD 7 μm SPE cartridges were used (Spark Holland). Each cartridge was initially conditioned with 2 ml methanol+0.5% formic acid (FA) and then equilibrated with 2 ml water+0.5% FA, both at flow-rates of 4 ml/min. Sample (25 μl) was aspirated and loaded onto the cartridge with 1 ml water+0.5% FA at a flow-rate of 1 ml/min. […] After elution, the right clamp was washed successively with 2 ml water+0.5% FA, 2 ml methanol+0.5% FA and 2 ml water+0.5% FA at 4 ml/min. […] The mobile phase composition was returned to starting conditions over 1 min and maintained during 6 min for column equilibration. The total run time was 27 min. Mass spectrometry was performed using the Thermo® TSQ Quantum Discovery Max in electrospray positive ionization mode (Thermo, US) with the following parameters: capillary voltage=4.0 kV, capillary temperature=300° C., sheath gas pressure=40, auxiliary gas pressure=5.
(§2) All values are expressed as means±SEM of three independent experiments. ND., non detectable.

MDA-MB-453 cells = experiment: as above; type: in vitro ADME, human; parameters: unit not given beside the values
Description: as §1, §2

[5] = Phase I clinical trial GBM, pharmacokinetics; type: in vivo, human; settings: for Metabolite/iniparib concentration ratio: arithmetic average±SD; for Cmax: geometric mean±SD, plasma
Source text: No cytochrome P450-inducing anticonvulsants. However, Gliadel was permitted.
Dosing is IV 2×/week continuous.

[6] = tested on: several cancer cell lines; experiment: Cytotoxic activity on several cancer cell lines (preliminary screening); settings: all cell lines
[7] = target: T3, human recombinant glutathione S-transferase pi (GSTP1) (Homo sapiens, UniProt P09211); experiment: In vitro Iniparib-glutathione conjugation; type: biochemical; settings: 30 μM, 1 mM GSH, absence of GSTP1
T3 construct: purchased Acris
T3 sequence (P09211 whole entry): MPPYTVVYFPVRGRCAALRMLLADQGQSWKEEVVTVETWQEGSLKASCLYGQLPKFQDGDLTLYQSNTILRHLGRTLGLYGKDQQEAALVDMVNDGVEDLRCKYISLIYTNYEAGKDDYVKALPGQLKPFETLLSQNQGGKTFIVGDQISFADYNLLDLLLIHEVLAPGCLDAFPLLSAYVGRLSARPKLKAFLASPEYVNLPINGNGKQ
Description: as §1

recombinant human GAPDH = target: T4, recombinant human GAPDH (Homo sapiens, UniProt P04406); experiment: In vitro modification of GAPDH by Iniparib and I-NOBA; type: binding
T4 construct: purchased Acris
T4 sequence (P04406 whole entry): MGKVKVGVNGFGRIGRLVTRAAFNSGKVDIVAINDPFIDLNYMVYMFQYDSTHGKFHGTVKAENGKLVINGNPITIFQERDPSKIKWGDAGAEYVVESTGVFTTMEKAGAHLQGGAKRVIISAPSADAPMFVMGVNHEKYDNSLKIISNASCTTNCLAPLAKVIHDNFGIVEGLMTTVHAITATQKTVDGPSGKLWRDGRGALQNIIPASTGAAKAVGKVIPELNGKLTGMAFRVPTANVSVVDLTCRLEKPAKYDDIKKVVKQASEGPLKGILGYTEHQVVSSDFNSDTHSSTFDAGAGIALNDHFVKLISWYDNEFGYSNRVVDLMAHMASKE
Description: For biochemical analysis, recombinant human GAPDH (Acris) was first reduced by a 15,000-fold excess of DTT at 56° C. for 30 min, the reducing agent being removed thereafter by chloroform/methanol precipitation. […] Afterwards the samples were submitted or not to another reducing step with 25 mM DTT (56° C., 30 min), and after removal of DTT by chloroform/methanol precipitation, biotinylation of free cysteine sulfhydryl groups of GAPDH was performed with HPDP-biotin (N-[6-(Biotinamido)hexyl]-3′-(2′-pyridyldithio)propionamide) at […] for 2 h at 20° C.
Sample mixtures were then reduced or not with 25 mM DTT (56° C., 30 min). Intact molecular weights were measured by mass spectrometry. Liquid chromatography-electrospray ionization mass spectrometry (LC/MS) was carried out using LTQ-Orbitrap Elite mass spectrometer (Thermo Fisher Scientific) coupled to a Famos Autosampler and an Ultimate Pump (LC-Packing, Dionex). Reverse phase chromatography was performed with a binary buffer system consisting of 0.2% formic acid (buffer A) and 80% acetonitrile in 0.2% formic acid (buffer B). After dilution to 1 pmole/μl in 0.2% formic acid, 1 μl of samples were loaded on a Poros 1 R/H column (75 μm×15 cm, Dionex). […] Mass spectra (m/z 500-2,000) were acquired in the positive ITMS mode with 5 μscans accumulation, a target value of 30,000 and a maximum injection time of 100 ms. The acquired raw files were converted in MassLynx format (Waters) using an home-made program and then were deconvoluted using MaxEnt software (Waters).

[8] = HCT116 w BSO, 1 h after 100 μM Iniparib
[9] = HCT116 w BSO, 5 h after 100 μM Iniparib
[10] = HCT116 w BSO, 24 h after 100 μM Iniparib
[11] = MDA-MB-453 w BSO, 1 h after 100 μM Iniparib
[12] = MDA-MB-453 w BSO, 5 h after 100 μM Iniparib
[13] = MDA-MB-453 w BSO, 24 h after 100 μM Iniparib
[14] = MDA-MB-453 w/o BSO, 24 h after 100 μM Iniparib

## CC(=O)OC[C@H]1O[C@@H]([S-])[C@H](OC(C)=O)[C@@H](OC(C)=O)[C@@H]1OC(C)=O.CCP(CC)CC.[Au+] [Auranofin]
[1]
  concentration inhibiting all adduct formation with Iniparib-biotin: 1 to 3 µM
[2]; 90-min preincubation of GSH-depleted HCT116 (auranofin 10 μM or Iniparib 100 μM)
  TrxR1 labeling with Iniparib-biotin after preincubation: abolished
[2]; GSH-depleted HCT116
  concentration preventing Iniparib-biotin labeling of the 55-kDa protein attributed to TrxR: 0.1 to 0.3 µM
TrxR in MDA-MB-231 cells
  TrxR reductase activity: inhibition of the reductase activity
[3]; GSH-depleted HCT116, 7 h or 24 h
  p38MAPK and JNK phosphorylation: JNK and p38MAPK activation
TrxR in HCT116 cells; 1 μM, immediately after adding the compound to the cells
  inhibition of TrxR activity: inhibited almost completely
TrxR in HCT116 cells; 4 h treatment, BSO-pretreated HCT116
  IC50: 70 nM

## CCCCS(=N)(=O)CCC(N)C(=O)O [BSO, L-buthionine sulfoximine]
[4]
  GSH content: below 5 % of controls

## NC(=O)c1ccc(I)c(N)c1 [I-ABM, 4-iodo-3 aminobenzamide]
HCT116 cells; [8]
  Iniparib and metabolites in incubation media: 0.3 ± 0.1
HCT116 cells; [9]
  Iniparib and metabolites in incubation media: 1.1 ± 0.3
HCT116 cells; [10]
  Iniparib and metabolites in incubation media: 4.4 ± 1.2
HCT116 cells; HCT116 w/o BSO, 1 h after 100 μM Iniparib
  Iniparib and metabolites in incubation media: 0.2 ± 0.1
HCT116 cells; HCT116 w/o BSO, 5 h after 100 μM Iniparib
  Iniparib and metabolites in incubation media: 0.4 ± 0.1
HCT116 cells; HCT116 w/o BSO, 24 h after 100 μM Iniparib
  Iniparib and metabolites in incubation media: 0.5 ± 0.2
MDA-MB-453 cells; [11]
  Iniparib and metabolites in incubation media: 0.3 ± 0.1
MDA-MB-453 cells; [12]
  Iniparib and metabolites in incubation media: 1.4 ± 0.1
MDA-MB-453 cells; [13]
  Iniparib and metabolites in incubation media: 5.4 ± 0.2
MDA-MB-453 cells; MDA-MB-453 w/o BSO, 1 h after 100 μM Iniparib
  Iniparib and metabolites in incubation media: 0.2 ± 0.0
MDA-MB-453 cells; MDA-MB-453 w/o BSO, 5 h after 100 μM Iniparib
  Iniparib and metabolites in incubation media: 0.5 ± 0.2
MDA-MB-453 cells; [14]
  Iniparib and metabolites in incubation media: 2.6 ± 0.2
[5]; 5.1 mg/kg
  Metabolite/iniparib concentration ratio: 1.1 ± 0.6%
[5]; 6.1 mg/kg
  Metabolite/iniparib concentration ratio: 0.9 ± 0.6%
[5]; 6.8 mg/kg
  Metabolite/iniparib concentration ratio: 1.1 ± 0.9%
[5]; 8.0 mg/kg
  Metabolite/iniparib concentration ratio: 0.3 ± 0.1%
[5]; 8.6 mg/kg
  Metabolite/iniparib concentration ratio: 0.8 ± 0.6%
[5]; 9.5 mg/kg
  Metabolite/iniparib concentration ratio: 0.8 ± 0.6%
[5]; human, 5.1 mg/kg IV 2×/week, read-out: Cmax
  Cmax: 5.7 ± 4.1 ng/mL
[5]; human, 6.1 mg/kg IV 2×/week, read-out: Cmax
  Cmax: 7.2 ± 1.8 ng/mL
[5]; human, 6.8 mg/kg IV 2×/week, read-out: Cmax
  Cmax: 8.4 ± 3.7 ng/mL
[5]; human, 8.0 mg/kg IV 2×/week, read-out: Cmax
  Cmax: 10.3 ± 2.9 ng/mL
[5]; human, 8.6 mg/kg IV 2×/week, read-out: Cmax
  Cmax: 9.7 ± 2.4 ng/mL
[5]; human, 9.5 mg/kg IV 2×/week, read-out: Cmax
  Cmax: 13.6 ± 5.3 ng/mL

## NC(=O)c1ccc(I)c(NO)c1 [I-HABM]
HCT116 cells; [10]
  Iniparib and metabolites in incubation media: 0.1 ± 0.0

## NC(=O)c1ccc(I)c(N=O)c1 [I-NOBA]
HCT116 cells; [8]
  Iniparib and metabolites in incubation media: 4.4 ± 0.0
HCT116 cells; [9]
  Iniparib and metabolites in incubation media: 14.6 ± 0.1
HCT116 cells; [10]
  Iniparib and metabolites in incubation media: 26.5 ± 2.9
MDA-MB-453 cells; [11]
  Iniparib and metabolites in incubation media: 0.6 ± 0.1
MDA-MB-453 cells; [12]
  Iniparib and metabolites in incubation media: 3.5 ± 0.7
MDA-MB-453 cells; [13]
  Iniparib and metabolites in incubation media: 2.9 ± 1.0
MDA-MB-453 cells; [14]
  Iniparib and metabolites in incubation media: 0.2 ± 0.1
[6]
  cytotoxic activity relative to Iniparib: more active than Iniparib
[7]
  reaction with GSH: reacted with GSH
Recombinant human GAPDH; purified GAPDH incubated with compound
  covalent modification of GAPDH (MS analysis): formation of protein adducts
Recombinant human GAPDH; purified GAPDH, biotin-HPDP labeling, streptavidin-HRP blot
  blocking of free thiol groups in GAPDH: completely blocked

## Nc1cc(C(=O)O)ccc1I [IABA]
[5]; 5.1 mg/kg IV 2×/week
  Cmax: 16.6 ± 5.2 ng/mL
[5]; 5.1 mg/kg
  Metabolite/iniparib concentration ratio: 3.0 ± 2.0%
[5]; 6.1 mg/kg IV 2×/week
  Cmax: 14.9 ± 8.3 ng/mL
[5]; 6.1 mg/kg
  Metabolite/iniparib concentration ratio: 2.0 ± 1.5%
[5]; 6.8 mg/kg IV 2×/week
  Cmax: 19.9 ± 6.6 ng/mL
[5]; 6.8 mg/kg
  Metabolite/iniparib concentration ratio: 2.4 ± 1.4%
[5]; 8.0 mg/kg IV 2×/week
  Cmax: 14.5 ± 15.0 ng/mL
[5]; 8.0 mg/kg
  Metabolite/iniparib concentration ratio: 0.7 ± 0.7%
[5]; 8.6 mg/kg IV 2×/week
  Cmax: 31.5 ± 10.4 ng/mL
[5]; 8.6 mg/kg
  Metabolite/iniparib concentration ratio: 2.5 ± 1.4%
[5]; 9.5 mg/kg IV 2×/week
  Cmax: 19.8 ± 14.0 ng/mL
[5]; 9.5 mg/kg
  Metabolite/iniparib concentration ratio: 2.0 ± 2.0%

## CN[C@@H]1C[C@H]2O[C@@](C)([C@@H]1OC)n1c3ccccc3c3c4c(c5c6ccccc6n2c5c31)C(=O)NC4 [staurosporine, reference compound]
[3]; GSH-depleted HCT116
  PARP1 cleavage: triggered PARP1 cleavage
[3]; GSH-depleted HCT116, 7 h or 24 h, 100 μM Iniparib, 1 μM Auranofin, 100 nM Staurosporin
  Trx oxidation: unable to induce oxidation of Trx
